Test results from ChEMBL document CHEMBL3885881, “DrugMatrix”.

Species: Rattus norvegicus
Assay: DrugMatrix - Regimen: Daily Repeat
Format: toxicity, organism-based, Sprague-Dawley
Parameters: regimen Daily Repeat, gender Male, age 6-8 weeks
Conditions: in vivo, vehicle 100 % SALINE; for ABSOLUTE BASOPHIL / ABSOLUTE EOSINOPHIL / ABSOLUTE LYMPHOCYTE / ABSOLUTE MONOCYTE / BASOPHIL / EOSINOPHIL / ERYTHROCYTE COUNT / HEMATOCRIT / HEMOGLOBIN / LEUKOCYTE COUNT / LYMPHOCYTE / MEAN CORPUSCULAR HEMOGLOBIN / MEAN CORPUSCULAR HEMOGLOBIN CONCENTRATION / MEAN CORPUSCULAR VOLUME / MONOCYTE / NEUTROPHIL / NUCLEATED RED BLOOD CELLS / PLATELET COUNT: tissue Blood
[1] = ip, 0.5 mg/kg, […], tissue Plasma, route intraperitoneal, dose level High, time 28 day
[2] = iv, 0 mg/kg, 72 h, dose level Control, time 3 day
[3] = iv, 0 mg/kg, 72 h, tissue Plasma, dose level Control, time 3 day
[4] = iv, 0 mg/kg, 120 h, dose level Control, time 5 day
[5] = iv, 0 mg/kg, 120 h, tissue Plasma, dose level Control, time 5 day
[6] = iv, 2 mg/kg, 72 h, dose level High, time 3 day
[7] = iv, 2 mg/kg, 72 h, tissue Plasma, dose level High, time 3 day
[8] = iv, 2 mg/kg, 120 h, dose level High, time 5 day
[9] = iv, 2 mg/kg, 120 h, tissue Plasma, dose level High, time 5 day

## CISPLATIN
[1]
  ALKALINE PHOSPHATASE: 134.22 u/L
  ASPARTATE AMINOTRANSFERASE: 78.67 u/L
  BLOOD UREA NITROGEN: 25 mg/dL
  CHOLESTEROL: 63.11 mg/dL
  CREATININE: 0.82 mg/dL
  GLUCOSE: 108.67 mg/dL
  LACTATE DEHYDROGENASE: 80.89 u/L
  LIPASE: 18.22 u/L
  PHOSPHORUS: 9.11 mg/dL
  POTASSIUM: 6.18 MEQ/L
  SODIUM: 151.78 MEQ/L
  TOTAL BILIRUBIN: 0.29 mg/dL
  URIC ACID: 1.11 mg/dL
[2]
  ABSOLUTE BASOPHIL: 0 CELLS/uL
  ABSOLUTE EOSINOPHIL: 0 CELLS/uL
  ABSOLUTE LYMPHOCYTE: 7026.17 CELLS/uL
  ABSOLUTE MONOCYTE: 44.33 CELLS/uL
  BASOPHIL: 0%
  EOSINOPHIL: 0%
  ERYTHROCYTE COUNT: 5.49 x10E6/uL
  HEMATOCRIT: 33.67%
  HEMOGLOBIN: 13.17 G/DL
  LEUKOCYTE COUNT: 7.45 x10E3/uL
  LYMPHOCYTE: 94%
  MEAN CORPUSCULAR HEMOGLOBIN: 24.03 pg
  MEAN CORPUSCULAR HEMOGLOBIN CONCENTRATION: 39.15 G/DL
  MEAN CORPUSCULAR VOLUME: 61.4 fL
  MONOCYTE: 0.67%
  NEUTROPHIL: 5.33%
  NUCLEATED RED BLOOD CELLS: 0.17 /100WBC
  PLATELET COUNT: 1062.5 x10E3/uL
[3]
  ALANINE AMINOTRANSFERASE: 53.17 u/L
  ALKALINE PHOSPHATASE: 339.83 u/L
  ASPARTATE AMINOTRANSFERASE: 83.33 u/L
  BLOOD UREA NITROGEN: 16 mg/dL
  CARBON DIOXIDE: 32.5 mmol/L
  CHLORIDE: 98 MEQ/L
  CHOLESTEROL: 74.67 mg/dL
  CREATININE: 0.2 mg/dL
  GLUCOSE: 128.67 mg/dL
  LACTATE DEHYDROGENASE: 110.33 u/L
  LIPASE: 9 u/L
  PHOSPHORUS: 11.73 mg/dL
  POTASSIUM: 6.34 MEQ/L
  TOTAL BILIRUBIN: 0.18 mg/dL
  URIC ACID: 1.28 mg/dL
[4]
  ABSOLUTE BASOPHIL: 0 CELLS/uL
  ABSOLUTE EOSINOPHIL: 26.67 CELLS/uL
  ABSOLUTE LYMPHOCYTE: 8334.17 CELLS/uL
  ABSOLUTE MONOCYTE: 29.5 CELLS/uL
  BASOPHIL: 0%
  EOSINOPHIL: 0.33%
  ERYTHROCYTE COUNT: 5.44 x10E6/uL
  HEMATOCRIT: 33.77%
  HEMOGLOBIN: 13.05 G/DL
  LEUKOCYTE COUNT: 8.98 x10E3/uL
  LYMPHOCYTE: 92.33%
  MEAN CORPUSCULAR HEMOGLOBIN: 24 pg
  MEAN CORPUSCULAR HEMOGLOBIN CONCENTRATION: 38.67 G/DL
  MEAN CORPUSCULAR VOLUME: 62.05 fL
  MONOCYTE: 0.33%
  NEUTROPHIL: 7%
  NUCLEATED RED BLOOD CELLS: 0 /100WBC
  PLATELET COUNT: 987 x10E3/uL
[5]
  ALANINE AMINOTRANSFERASE: 43.5 u/L
  ALKALINE PHOSPHATASE: 310.17 u/L
  ASPARTATE AMINOTRANSFERASE: 76.67 u/L
  BLOOD UREA NITROGEN: 17 mg/dL
  CHLORIDE: 100.33 MEQ/L
  CHOLESTEROL: 69.33 mg/dL
  CREATININE: 0.22 mg/dL
  GLUCOSE: 155.17 mg/dL
  PHOSPHORUS: 11.2 mg/dL
  POTASSIUM: 5.5 MEQ/L
  TOTAL BILIRUBIN: 0.18 mg/dL
  URIC ACID: 0.88 mg/dL
[6]
  ABSOLUTE BASOPHIL: 0 CELLS/uL
  ABSOLUTE EOSINOPHIL: 0 CELLS/uL
  ABSOLUTE LYMPHOCYTE: 6398.67 CELLS/uL
  ABSOLUTE MONOCYTE: 72 CELLS/uL
  BASOPHIL: 0%
  EOSINOPHIL: 0%
  ERYTHROCYTE COUNT: 5.34 x10E6/uL
  HEMATOCRIT: 33.2%
  HEMOGLOBIN: 13.07 G/DL
  LEUKOCYTE COUNT: 6.77 x10E3/uL
  LYMPHOCYTE: 94.67%
  MONOCYTE: 1%
  NEUTROPHIL: 4.33%
  NUCLEATED RED BLOOD CELLS: 0 /100WBC
  PLATELET COUNT: 1193.33 x10E3/uL
[7]
  ALANINE AMINOTRANSFERASE: 59.33 u/L
  ALKALINE PHOSPHATASE: 321.33 u/L
  ASPARTATE AMINOTRANSFERASE: 83.33 u/L
  BLOOD UREA NITROGEN: 45.67 mg/dL
  CARBON DIOXIDE: 28 mmol/L
  CHLORIDE: 98.67 MEQ/L
  CHOLESTEROL: 63.33 mg/dL
  CREATININE: 0.81 mg/dL
  GLUCOSE: 165.67 mg/dL
  LACTATE DEHYDROGENASE: 157 u/L
  LIPASE: 8.33 u/L
  PHOSPHORUS: 9.77 mg/dL
  POTASSIUM: 5.3 MEQ/L
  TOTAL BILIRUBIN: 0.3 mg/dL
  URIC ACID: 0.97 mg/dL
[8]
  ABSOLUTE BASOPHIL: 0 CELLS/uL
  ABSOLUTE EOSINOPHIL: 0 CELLS/uL
  ABSOLUTE LYMPHOCYTE: 6841 CELLS/uL
  ABSOLUTE MONOCYTE: 28.67 CELLS/uL
  BASOPHIL: 0%
  EOSINOPHIL: 0%
  ERYTHROCYTE COUNT: 5.89 x10E6/uL
  HEMOGLOBIN: 14.03 G/DL
  LEUKOCYTE COUNT: 7.07 x10E3/uL
  LYMPHOCYTE: 97%
  MEAN CORPUSCULAR HEMOGLOBIN: 23.87 pg
  MEAN CORPUSCULAR HEMOGLOBIN CONCENTRATION: 39.17 G/DL
  MONOCYTE: 0.33%
  NEUTROPHIL: 2.67%
  NUCLEATED RED BLOOD CELLS: 0 /100WBC
  PLATELET COUNT: 1329.67 x10E3/uL
[9]
  ALANINE AMINOTRANSFERASE: 52 u/L
  ALKALINE PHOSPHATASE: 249 u/L
  ASPARTATE AMINOTRANSFERASE: 79.33 u/L
  BLOOD UREA NITROGEN: 37.67 mg/dL
  CHLORIDE: 100 MEQ/L
  CHOLESTEROL: 80 mg/dL
  CREATININE: 0.65 mg/dL
  GLUCOSE: 137.33 mg/dL
  LACTATE DEHYDROGENASE: 134.33 u/L
  LIPASE: 11.67 u/L
  PHOSPHORUS: 9.43 mg/dL
  POTASSIUM: 5.31 MEQ/L
  TOTAL BILIRUBIN: 0.17 mg/dL
  URIC ACID: 0.67 mg/dL
